Source: PubChem BioAssay (NCI)
Several values for one entry are separate records, joined by “and”; a condition that tells them apart may be missing. Equal values may be shown once.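 48-hour exposure; five concentrations; linearly interpolated endpoints. GI50 = concentration required for 50% inhibition of growth. The concentration for full growth arrest is given as TGI.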

Legend:
Experiment in all cases: growth of human tumour cells (NCI), 48 h
HCC-2998 colon = tested on: HCC-2998 colon
HL-60(TB) leukemia = tested on: HL-60(TB) leukemia
HT29 colon = tested on: HT29 colon
M14 melanoma = tested on: M14 melanoma
SK-MEL-28 melanoma = tested on: SK-MEL-28 melanoma
SK-OV-3 ovarian = tested on: SK-OV-3 ovarian
TK-10 renal = tested on: TK-10 renal
U251 CNS = tested on: U251 CNS
T-47D breast = tested on: T-47D breast
BT-549 breast = tested on: BT-549 breast

SMILES	GI50 (HCC-2998 colon)	TGI (HCC-2998 colon)	GI50 (HL-60(TB) leukemia)	TGI (HL-60(TB) leukemia)	GI50 (HT29 colon)	TGI (HT29 colon)	GI50 (M14 melanoma)	TGI (M14 melanoma)	GI50 (SK-MEL-28 melanoma)	TGI (SK-MEL-28 melanoma)	GI50 (SK-OV-3 ovarian)	TGI (SK-OV-3 ovarian)	GI50 (TK-10 renal)	TGI (TK-10 renal)	GI50 (U251 CNS)	TGI (U251 CNS)	TGI (T-47D breast)	GI50 (BT-549 breast)	TGI (BT-549 breast)	GI50 (T-47D breast)
N.N.NCCCCN.O=C([O-])CC(=O)[O-].O=C([O-])CC(=O)[O-].[Pt+4].[Pt+4]	97.3 µM	> 100 µM	11.5 µM	> 100 µM	> 100 µM	> 100 µM	> 100 µM	> 100 µM	> 100 µM	> 100 µM	> 100 µM	> 100 µM	> 100 µM	> 100 µM	48.5 µM	> 100 µM				
O=C1NC(=O)C2=C1CCC2O (stereo unspecified)		> 100 µM		> 100 µM		> 100 µM		> 100 µM		> 100 µM		> 100 µM		> 100 µM		> 100 µM	> 100 µM			
O=C1C2c3[nH]c4ccccc4c3C3CCSCC3C2C(=O)N1c1ccccc1 (stereo unspecified)				> 100 µM		> 100 µM		> 100 µM		> 100 µM		> 100 µM		> 100 µM		> 100 µM				
O=C1C(Cl)=C(Oc2ccccc2)C(=O)c2ccccc21	4.28 µM	15.9 µM	2.54 µM	17.7 µM	3.09 µM	12.3 µM	8.55 µM	22 µM	13.5 µM	27.1 µM	6.51 µM	23.6 µM	1.87 µM	3.41 µM	3.57 µM	13.4 µM		2.86 µM	9.3 µM	
O=C(Nc1ccccc1)O/N=C1/CCCC/C1=C\c1ccccc1		41.7 µM				95.1 µM		32.8 µM		31.8 µM		35.6 µM		31.7 µM		30.2 µM				
Nc1nc(SCC(=O)O)[nH]c(=O)c1N				> 100 µM		> 100 µM		> 100 µM		> 100 µM		> 100 µM		> 100 µM		> 100 µM	> 100 µM		> 100 µM	
C=CC[P@@]1(=O)O[C@H](c2ccccc2)C(C)N1C(C)C (stereo partly specified)		> 100 µM		> 100 µM		> 100 µM		> 100 µM		> 100 µM		> 100 µM		> 100 µM		> 100 µM				
CC1=CCP(C(F)(F)F)P(C(F)(F)F)C1 (stereo unspecified)		> 100 µM		> 100 µM		> 100 µM		> 100 µM		> 100 µM		> 100 µM		> 100 µM		> 100 µM				
CCOC(=O)c1sc2ncn(Cc3cccc(Cl)c3)c(=O)c2c1C			18 µM	31.9 µM	19.3 µM	33.4 µM	15.4 µM	28.7 µM	16.8 µM	30.4 µM	17.4 µM	31.2 µM			12.9 µM	25.6 µM	29 µM	17.2 µM	30.9 µM	15.6 µM
CC1(c2ccccc2)CC12C(=O)NC(=O)NC2=O (stereo unspecified)		> 100 µM		> 100 µM		> 100 µM		> 100 µM		> 100 µM		> 100 µM		> 100 µM		> 100 µM				
Cc1c2cc[n+](C)cc2c(C)c2c1[nH]c1ccc(OC(C)C)cc12	2.87 µM and 6.45 µM	9.95 µM and 20 µM		11.2 µM and 39.9 µM		18.5 µM and 24.4 µM		35 µM and 26.7 µM		12.4 µM and 17.3 µM	1.98 µM and 4.47 µM	> 85.5 µM		> 100 µM	0.145 µM and 0.39 µM	2.93 µM and 9.46 µM				
COc1c2c(c(OC)c3c(=O)cc(C/C(=N/NC(=O)C[n+]4ccccc4)C(=O)Nc4cc(C)ccc4C)oc13)OCO2		> 100 µM		> 100 µM		> 100 µM		> 100 µM		> 100 µM		> 100 µM		> 100 µM		> 100 µM				
CC(C)(C)c1ccc(Oc2ccc(C#N)c(C#N)c2)c(C(C)(C)C)c1		> 100 µM		32.3 µM		> 100 µM		> 100 µM		> 100 µM		> 100 µM		> 100 µM		> 100 µM				
Brc1nc2c3ccccc3ncn2c1Br		> 100 µM		> 100 µM		> 100 µM		> 100 µM		> 100 µM		> 100 µM		> 100 µM		> 100 µM				
CC1=C(C(=O)Nc2ccc(F)c(Cl)c2)C(c2cccc(O)c2)NC(=S)N1 (stereo unspecified)			25.8 µM	> 50 µM			14.7 µM	> 50 µM	> 50 µM	> 50 µM	16.8 µM	> 50 µM	> 50 µM	> 50 µM	16.6 µM	> 50 µM	> 50 µM	12.1 µM	36.8 µM	> 50 µM
COCC1N=C(c2ccc(OC)c(OCc3ccccc3)c2OC)O[C@H]1c1ccccc1 (stereo partly specified)		> 100 µM		40.4 µM		59.7 µM		35.2 µM		69.8 µM		96.1 µM		> 100 µM		60.6 µM				
CC(=O)CC(=O)CCCC(=O)Nc1ccc(Cl)cc1Cl		> 100 µM		> 100 µM		> 100 µM		> 100 µM		> 100 µM		> 100 µM		> 100 µM						
CN(C)CCN1N=Nc2cccc3cccc1c23		> 100 µM		> 70.8 µM		> 100 µM		> 100 µM		> 100 µM		> 100 µM		> 100 µM		> 100 µM				
Nc1ccc(CCN2CCN(c3cccc(C(F)(F)F)c3)CC2)cc1		> 100 µM		41.8 µM		> 100 µM		> 100 µM		> 100 µM		> 100 µM		> 100 µM		> 100 µM				
COC(=O)C/C(C)=C/[C@@H](O)[C@H]1O[C@@H]2CC/C(Cl)=C/C/C=C(/C)[C@H](OC(C)=O)CC(=O)O[C@@H]1C2			1.8 µM	11.9 µM	1.26 µM	> 25 µM			1.04 µM	5.75 µM			0.489 µM	1.32 µM	4.55 µM	13.2 µM		1.89 µM	7.73 µM	
c1ccc(Oc2c3ccccc3nc3ccccc23)cc1	2.87 µM	7.97 µM	0.541 µM	5.79 µM	0.48 µM	2.83 µM	3.4 µM	10.7 µM	11.3 µM	24.1 µM	4.34 µM	21 µM			3.26 µM	11 µM	10.9 µM			2.81 µM
